Assay results: article PMC10648927, “Examining the activity of cefepime-taniborbactam against Burkholderia cepacia complex and Burkholderia gladioli isolated from cystic fibrosis patients in the United States” (Antimicrobial Agents and Chemotherapy, 2023)
≈ marks a conversion by molar mass, not a printed value.

Tests used:
Design in all cases: agar dilution MIC, growth inhibition of clinical Burkholderia isolates
B. contaminans AU17641 = test system: T1, B. contaminans AU17641; test: organism not typed
T1 construct: AU17641
Procedure, shortened: (§1)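 MICs by agar dilution against Bcc and B. gladioli clinical isolates, interpreted with CLSI breakpoints where available; K. pneumoniae ATCC 700603 (SHV-18) and ATCC BAA-1705 (KPC) served as quality controls.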

B. cenocepacia AU24362 = test system: T2, B. cenocepacia AU24362; test: microbe, parasite or virus in culture; details: Burkholderia cenocepacia, AU24362
T2 construct: AU24362
Procedure, shortened: as §1

B. multivorans AU17534 = test system: T3, B. multivorans AU17534; test: microbe, parasite or virus in culture; details: Burkholderia multivorans, AU17534
T3 construct: AU17534
Procedure, shortened: as §1

B. multivorans AU10047 = test system: T4, B. multivorans AU10047; test: microbe, parasite or virus in culture; details: Burkholderia multivorans, AU10047
T4 construct: AU10047
Procedure, shortened: as §1

B. multivorans AU21596 = test system: T5, B. multivorans AU21596; test: microbe, parasite or virus in culture; details: Burkholderia multivorans, AU21596
T5 construct: AU21596
Procedure, shortened: as §1

B. multivorans AU25626 = test system: T6, B. multivorans AU25626; test: microbe, parasite or virus in culture; details: Burkholderia multivorans, AU25626
T6 construct: AU25626
Procedure, shortened: as §1

B. stabilis AU10235 = test system: T7, B. stabilis AU10235; test: microbe, parasite or virus in culture; details: Burkholderia stabilis, AU10235
T7 construct: AU10235
Procedure, shortened: as §1

B. contaminans AU2244 = test system: T8, B. contaminans AU2244; test: organism not typed
T8 construct: AU2244
Procedure, shortened: as §1

B. vietnamiensis AU3578 = test system: T9, B. vietnamiensis AU3578; test: microbe, parasite or virus in culture; details: Burkholderia vietnamiensis, AU3578
T9 construct: AU3578
Procedure, shortened: as §1

B. cenocepacia AU8635 = test system: T10, B. cenocepacia AU8635; test: microbe, parasite or virus in culture; details: Burkholderia cenocepacia, AU8635
T10 construct: AU8635
Procedure, shortened: as §1

B. cenocepacia AU6550 = test system: T11, B. cenocepacia AU6550; test: microbe, parasite or virus in culture; details: Burkholderia cenocepacia, AU6550
T11 construct: AU6550
Procedure, shortened: as §1

B. vietnamiensis AU3997 = test system: T12, B. vietnamiensis AU3997; test: microbe, parasite or virus in culture; details: Burkholderia vietnamiensis, AU3997
T12 construct: AU3997
Procedure, shortened: as §1

B. cenocepacia AU14093 = test system: T13, B. cenocepacia AU14093; test: microbe, parasite or virus in culture; details: Burkholderia cenocepacia, AU14093
T13 construct: AU14093
Procedure, shortened: as §1

B. multivorans AU10086 = test system: T14, B. multivorans AU10086; test: microbe, parasite or virus in culture; details: Burkholderia multivorans, AU10086
T14 construct: AU10086
Procedure, shortened: as §1

B. multivorans AU4507 = test system: T15, B. multivorans AU4507; test: microbe, parasite or virus in culture; details: Burkholderia multivorans, AU4507
T15 construct: AU4507
Procedure, shortened: as §1

B. multivorans AU11358 = test system: T16, B. multivorans AU11358; test: microbe, parasite or virus in culture; details: Burkholderia multivorans, AU11358
T16 construct: AU11358
Procedure, shortened: as §1

B. cenocepacia AU29265 = test system: T17, B. cenocepacia AU29265; test: microbe, parasite or virus in culture; details: Burkholderia cenocepacia, AU29265
T17 construct: AU29265
Procedure, shortened: as §1

B. vietnamiensis AU26096 = test system: T18, B. vietnamiensis AU26096; test: microbe, parasite or virus in culture; details: Burkholderia vietnamiensis, AU26096
T18 construct: AU26096
Procedure, shortened: as §1

Compound | MIC (B. contaminans AU17641) [µg/mL] | MIC (B. cenocepacia AU24362) [µg/mL] | MIC (B. multivorans AU17534) [µg/mL] | MIC (B. multivorans AU10047) [µg/mL] | MIC (B. multivorans AU21596) [µg/mL] | MIC (B. multivorans AU25626) [µg/mL] | MIC (B. stabilis AU10235) [µg/mL] | MIC (B. contaminans AU2244) [µg/mL] | MIC (B. vietnamiensis AU3578) [µg/mL] | MIC (B. cenocepacia AU8635) [µg/mL] | MIC (B. cenocepacia AU6550) [µg/mL] | MIC (B. vietnamiensis AU3997) [µg/mL] | MIC (B. cenocepacia AU14093) [µg/mL] | MIC (B. multivorans AU10086) [µg/mL] | MIC (B. multivorans AU4507) [µg/mL] | MIC (B. multivorans AU11358) [µg/mL] | MIC (B. cenocepacia AU29265) [µg/mL] | MIC (B. vietnamiensis AU26096) [µg/mL]
CO/N=C(\C(=O)N[C@@H]1C(=O)N2C(C(=O)[O-])=C(C[N+]3(C)CCCC3)CS[C@H]12)c1csc(N)n1 [cefepime] | 32 (≈ 66.6 µM) | > 32 | > 32 | 32 (≈ 66.6 µM) | > 32 | 8 (≈ 16.6 µM) | > 32 | 16 (≈ 33.3 µM) | > 32 | > 32 | 32 (≈ 66.6 µM) | 8 (≈ 16.6 µM) | > 32 | 32 (≈ 66.6 µM) | 8 (≈ 16.6 µM) | 8 (≈ 16.6 µM) | 16 (≈ 33.3 µM) | 32 (≈ 66.6 µM)
C[C@H]1COc2c(N3CCN(C)CC3)c(F)cc3c(=O)c(C(=O)O)cn1c23 [levofloxacin] | 4 (≈ 11.1 µM) | 8 (≈ 22.1 µM) | – | 8 (≈ 22.1 µM) | > 32 | 4 (≈ 11.1 µM) | 16 (≈ 44.3 µM) | 4 (≈ 11.1 µM) | 8 (≈ 22.1 µM) | > 32 | 8 (≈ 22.1 µM) | 8 (≈ 22.1 µM) | > 32 | > 32 | 8 (≈ 22.1 µM) | 2 (≈ 5.53 µM) | 2 (≈ 5.53 µM) | > 32
C[C@@H](O)[C@H]1C(=O)N2C(C(=O)O)=C(S[C@@H]3CN[C@H](C(=O)N(C)C)C3)[C@H](C)[C@H]12 [meropenem] | 4 (≈ 10.4 µM) | 16 (≈ 41.7 µM) | 16 (≈ 41.7 µM) | 16 (≈ 41.7 µM) | 32 (≈ 83.4 µM) | > 32 | 16 (≈ 41.7 µM) | 4 (≈ 10.4 µM) | 4 (≈ 10.4 µM) | 16 (≈ 41.7 µM) | 8 (≈ 20.9 µM) | 1 (≈ 2.61 µM) | 8 (≈ 20.9 µM) | 32 (≈ 83.4 µM) | 8 (≈ 20.9 µM) | 8 (≈ 20.9 µM) | 2 (≈ 5.22 µM) | 8 (≈ 20.9 µM)
